Test results taken from patent US20050059627A1, “CRF2 ligands in combination therapy” (priority 2000, published 2005).
d = 2'-deoxy (DNA); m = 2'-O-methyl

Assays:
rats [1] = assay: Freezing assay of anxiety (shock box); type: in vivo, rat
Description: CRF2 antisense oligonucleotides were administered intracerebroventricularly to target the lateral septum, a brain region containing high levels of CRF2 receptor and mRNA. The lateral septum is part of the limbic brain region known for its involvement in modulating fear and emotion. Rats treated with saline, antisense and mismatch-control oligonucleotides were tested in two different behavioral models of anxiety. Rodents display a characteristic freezing behavior when experiencing fear and anxiety. In the freezing model of anxiety, such behavior is induced by exposure to brief electrical foot-shocks. […] Administration of anxiolytic drugs such as benzodiazepines and selective serotonin reuptake inhibitors reduces the duration of freezing when previously shocked animals are returned to the shock box. In the antisense experiments, dosing of oligonucleotides began after two consecutive days of foot-shock treatment. Two hours following the last oligonucleotide administration on day 8 of dosing, rats were returned to the shock box and observed for 10 minutes. In this part of the experiment, which examines the effect of the pharmacological agent on conditioned fears, the antisense oligonucleotide, but not its mismatch control, reduced the duration of freezing by 50% (FIG. 3a). […] Furthermore, a robust suppression of CRF2 receptors produced important functional consequences that may not be apparent at lower levels of CRF2 receptor inhibition.
The shock box consisted of a black Plexiglas chamber with walls and cover. The doors of the box were constructed of clear Plexiglas over which one-way mirrors were attached for observation. The floor of the box contained a Coulbourn stainless steel shock grid with the bars of the grid spaced 1 cm apart. On the 8th day following surgical implantation of the guide cannulae, rats were placed in the box and allowed to habituate for 2 minutes. A total of 3 scrambled, randomized non-escapable foot-shocks (1.0 mA, 1 second duration) were then delivered at 20 second intervals to the grid floor. […]

rats [2] = assay: Elevated plus maze assay; type: in vivo, rat; conditions: dosed 8 days, tested 2 hours after last injection; FIG. 4a
From the text: The elevated plus maze (EPM) is widely used for the determination of anxiolytic or anxiogenic drug effects. The apparatus consists of a +-shaped maze, elevated 50 cm above the floor. Two opposing arms are open and exposed to the environment while the other two arms are enclosed with black Plexiglas sides. In rodents, exposure to the EPM produces an approach/avoidance conflict which generally causes the animal to spend most of its time in the closed arms of the maze.
In the antisense experiment, rats were dosed for 8 days and then tested in the EPM 2 hours after the last oligonucleotide injection. […] Such behavior is indicative of a reduced state of anxiety. […] Binding of ^125I-sauvagine to CRF2 receptors in the lateral septum was reduced by 60% by the antisense oligonucleotide in this experiment (FIG. 4b).
Oligonucleotide treatment of rats was begun on the 8th day following surgery. Rats were tested in the EPM 2 hours following dosing on the 8th day of treatment. At the start of the test, the rat was placed in the center square of the maze and its exploratory behavior during the ensuing 10 minutes was recorded by video-camera. An observer situated outside the test room scored the time spent in the open and closed arms, as well as the number of entries into each arm of the maze. The rats were euthanitized immediately following the conclusion of the test.

CRF2 receptors = assay: CRF2 receptor autoradiography: 125I-sauvagine binding in lateral septum of treated rats; type: in vivo, rat
Description: Rats were sacrificed by exposure to CO2. Brains were removed and frozen in methylbutane cooled on dry ice before storage at −80° C. Twenty μm sections through the lateral septum were cut on a cryostat(Kopf Instruments) for receptor autoradiography.
After warming to room temperature for 1 hour, brain sections were preincubated for 5 minutes in 50 mM Tris-HCL (pH 7.5) containing 10 mM MgCl2, 2 mM EGTA (ethylene glycol-bis(β-aminoethyl ether)N,N,N′,N′-tetraacetic acid), 0.1% ovalbumin, 0.08 TIU aprotinin and 0.1 mM bacitracin. Total binding was defined using 0.15 nM ^125I-sauvagine (New England Nuclear). CRF2 specific binding was determined in the presence of 1 μM SC-241, a CRF1 selective receptor antagonist (D. H. Rominger et alJ. Pharmacol. Exp. Therap., 286, 459-468, 1998). Non-specific binding was determined using 1 μM a-helical CRF (American Peptide). Incubations were performed in preincubation buffer containing radioligand and appropriate antagonists for 150 minutes. Tissue sections were then washed twice for 5 minutes each, in PBS containing 0.01% Triton X-100. After a final water rinse, excess water was aspirated and the sections were air-dried overnight. The sections and ^125I standard strips (Amersham) were exposed to Hyperfilm μ-Max (Amersham) for 72 hours.
Quantitation of CRF2 specific binding was performed using the NIH ImageMG 1.44 program. Optical density readings were converted to nCi of ligand bound per mg of protein tissue using ^125I standard strips. Between 7 to 9 adjacent sections were quantitated per rat.

CRF2 receptor mRNA = assay: Quantitative in situ hybridization of CRF2 receptor mRNA; type: in vivo, rodent; conditions: 9 days dosing
From the text: The absence of functional changes resulting from small antisense inhibitory effects often leads to non-interpretable results. This is due to the uncertainty of whether the experiment produced truly negative results or whether the antisense inhibition was insufficient to reveal a functional change. In addition to the antisense sequence, the magnitude of antisense inhibitory effects is influenced by the duration of antisense treatment and its relation to the half-life of the targeted protein. While the half-life of the CRF2 receptor is unknown, half-lives of other 7-transmembrane receptors in rodent brain (of which the CRF2 receptor is a member) are on the order of 2-3 days. Maximal inhibitory effects are typically seen after antisense treatment for at least 3 protein half-lives. While CRF2 antisense administration for 5 days produced a 40-50% inhibition of the receptor, increasing the duration of dosing to 9 days led to a 70-80% inhibitory effect on receptor binding. […] Therefore, in contrast to Heinrichs et al. whose CRF2 antisense oligonucleotide produced only a 15-20% CRF2 receptor reduction concomitant with significant weight loss in the treated animals, we have optimized antisense reagents for the study of CRF2 receptor function.

Sequence	reduction in the duration of freezing (rats [1]; after two brief foot-shocks, additional 10 minutes, vs saline or mismatch, FIG. 3a) [%]	freezing in the conditioned anxiety test (rats [1]; combination study: antisense icv 7 days, DPC904 oral, FIG. 7b)	reduction of duration of freezing (rats [1]; conditioned fear, icv, return to shock box, first 10 minutes, FIG. 3a) [%]	time in the open arms of the maze (rats [2])	inhibition of the receptor (CRF2 receptors; administration for 5 days)	CRF2 receptor binding (CRF2 receptors; combination study, saline/methocel control 1.20±0.05) [nCi/mg]	inhibitory effect on receptor binding (CRF2 receptors; dosing for 9 days)	reduction of binding of 125I-sauvagine to CRF2 receptors in the lateral septum (CRF2 receptors; rats of the elevated plus maze experiment, FIG. 4b) [%]	reduction in 125I-sauvagine binding to CRF2 receptors (CRF2 receptors; septal brain region of rats of the freezing assay, FIG. 3b) [%]	decrease in CRF2 receptor mRNA (CRF2 receptor mRNA)	decrease in receptor binding (CRF2 receptors; 9 days dosing)
TGA CGC agc ggc acC AGA CC (TGACGCAGCGGCACCAGACC; sugars from the 5' end m6 d8 m6, linkages o6 s8 o5 (s phosphorothioate, o phosphodiester), methylation of C not given here) [antisense oligonucleotide]	50	significant reductions in freezing	50	significantly more time in the open, exposed arms	40-50%	0.51±0.08	70-80%	60	70	comparable decreases	–
TGA GGC acc gga acC ACA CC (TGAGGCACCGGAACCACACC; sugars from the 5' end m6 d8 m6, linkages o6 s8 o5 (s phosphorothioate, o phosphodiester), methylation of C not given here) [Mismatch oligonucleotide, 4-base mismatch control of the antisense oligonucleotide, same chimeric chemistry, reference compound]	–	–	–	not statistically different from saline-treated rats	–	–	–	–	–	minimal decreases	minimal decreases
